Reference: patent US20150307841A1, “Composition for Promoting Differentiation and Proliferation of Neural Stem Cell and Neural Precursor Cell” (priority 2014, published 2015)
“Also recorded” adds a separate entry of the source.

Assays:
Type in all cases: in vivo, rat
[1] = tested on: memory-deficient model rats; experiment: Morris water maze test in memory-deficient model rats; settings: Experimental Example 2
From the text: Ibotenic acid is a neurotoxin present in mushrooms and is known to cause powerful damage to neurons when directly injected into the brain of mice or rats. In particular, because senile plaques and neuronal cell death appear in the entorhinal cortex and hippocampus in early Alzheimer's disease patients (Ueki A et al. J Neurol Sci, 1994), memory-deficient model rats were generated by injecting ibotenic acid (IBO) into the entorhinal cortex. The surgical protocol followed Heo H et al.'s method (J Ethnopharmacol, 2009) with some modifications. In the model animals, the injection of ibotenic acid induces cell death not only in the entorhinal cortex but also in the CA and DG regions of the hippocampus and impairs hippocampus-related learning and memory abilities.
The 6-week-old rats were anesthetized with equithesin (350 mM pentobarbital sodium, 250 mM chloral hydrate, 85 mM MgSO4 and 40% propylene glycol in 10% ethanol, 2 mL/kg). To induce cell death in the dentate gyrus and hippocampus in addition to the entorhinal cortex, ibotenic acid (1.5 μL per animal, 1 mg/mL) was injected into the entorhinal cortex as follows. The rat was placed in a stereotaxic device (Stoelting Co., Wood Dale, Ill., USA) with the incisor bar 3.4 mm below the interaural line. The needle was positioned 10° right to the midsaggital plane. […]
For each trial, the rat was allowed to swim for a maximum of 60 seconds to find the platform and to rest for 1 minute on the platform upon success. […] The swimming time and length of the trial were recorded and monitored using a video camera. […] The captured video images were analyzed by a video tracking system (EthoVision Water Maze program, Noldus Information Technology, Wageningen, the Netherlands). The analyzed information included the swimming time in the target quadrant and the number of virtual platform crossings to find the removed platform. […]

[2] = tested on: BrdU-positive neural precursor cells in the hippocampal region; experiment: Immunohistochemical analysis of BrdU in hippocampus after soyasaponin I administration (Experimental Example 1)
Experimental: After conducting the three behavioral tests, the rats were sacrificed for immunohistochemical analysis.
The brain slices of the test animals of the normal group (Sham), the IBO group and the Soya-I group were immunostained by the method of Heo H et al. (J Ethnopharmacol, 2009) with modifications. The rats were transcardially perfused with 4% PFA in PBS. Following fixation by immersing in 4% PFA in PBS for 3 hours, the brain tissues were cryoprotected in 30% sucrose in PBS, frozen with an optimal cutting temperature (OCT) compound and stored at −80° C.
The brain tissue blocks were cryosectioned through the coronal plane at a thickness of 35 μm. The brain tissue sections were stored at 4° C. in a storing solution (30% glycerol and 30% ethylene glycol in PBS). The stored brain slices were permeabilized in 0.5% Triton X-I00 for 20 minutes and incubated at 37° C. for 30 minutes in 2 N HCl. Then, they were blocked in 15% normal serum and 3% bovine serum albumin (BSA, bio-WORLD, Dublin, Ohio, USA) and 0.1% Triton X-100 for 2 hours under a free-floating condition.
The sections were incubated for 16 hours at 4° C. with primary antibodies against bromodeoxyuridine (BrdU) (Sigma). […]
In the immunohistochemical analysis, the number of the cells immnunostained against each antibody was counted from 5 or 6 hippocampal coronal sections. […]

[3] = tested on: GAD67-, VGluT1-, ChAT-positive neurons and OX42 reactive microglia in the hippocampus; experiment: Immunohistochemical analysis of GAD67, VGluT1, ChAT, OX42 in hippocampus (Experimental Example 1)
Experimental: Immunostaining was carried out using antibodies against VGluT1 (diluted 1:500, Chemicon), ChAT (1:500, Chemicon), GFAP (1:1,000, Chemicon), tyrosine hydroxylase (TH, 1:500, Chemicon) and OX42 (CD11b/c, 1:250, Serotec) as primary antibodies instead of the anti-BrdU antibodies used in (4). The other process was the same as in (4), except that incubation was performed at 37° C. for 30 minutes in 2 N HCl.
In the immunohistochemical analysis, the number of the cells immnunostained against each antibody was counted from 5 or 6 hippocampal coronal sections. For each staining analysis, every fifth cryosections of the hippocampal region of brain tissues (AP: bregma −4.5 to −4.3 mm) were taken for immunostaining. The number of the immnunostained cells was represented as an average of number of cells in the hippocampal region of one brain slice.
The number of the VGluT1- and GAD-positive cells in the brain slice samples 1 week and 4 weeks after the administration of soyasaponin I was presented per microscopic field (×400-VGluT1, ×800-GAD67) and the number of the ChAT-positive cells was presented per each hippocampal region (10-12 confocal laser microscopic fields). 5-11 animals were used per group. Western blotted membranes were analyzed using the multi-gauge, bio-imaging program on LAS-4000 Mini (Fujifilm Life Science, Stamford, Conn., USA). Densitometeric analysis of the expression ratios of VGluT1/β-actin, GAD65/67/β-actin and ChAT/β-actin was normalized to the vehicle group.

**Q.** With `C[C@@H]1O[C@@H](O[C@H]2[C@H](O[C@H]3[C@H](O[C@H]4CC[C@@]5(C)[C@@H](CC[C@]6(C)[C@@H]5CC=C5[C@@H]7CC(C)(C)C[C@@H](O)[C@]7(C)CC[C@]56C)[C@@]4(C)CO)O[C@H](C(=O)O)[C@@H](O)[C@@H]3O)O[C@H](CO)[C@H](O)[C@@H]2O)[C@H](O)[C@H](O)[C@H]1O` [soyasaponin I] as the compound, how does the “Morris water maze number of crossings across the target probe” value ([1]; probe trial session) read?
**A.** recovery to almost those of the normal group

**Q.** What about the “Morris water maze swimming time in the target quadrant” value ([1]; probe trial session) of the same compound?
**A.** recovery to almost those of the normal group

**Q.** What about the “Morris water maze escape latency time compared to the ibotenic acid-administered group” value ([1]; training trial, third and fourth days) of the same compound?
**A.** decreased

**Q.** And the “Dose with greatest rise in number of BrdU-positive cells” value ([2]; 10 mg/kg oral)?
**A.** largest increase

**Q.** And the “Number of BrdU-positive cells in the dentate gyrus of the hippocampus versus IBO” value ([2]; all doses (5, 10, 20 mg/kg) oral)?
**A.** increased significantly

**Q.** What about the “Number of VGluT1-positive cells” value ([3]; 10 mg/kg oral) of the same compound?
**A.** 57.33±2.43 cells per microscopic field

**Q.** What about the “Number of VGluT1-positive cells compared to the IBO group” value ([3]; 5, 10, 20 mg/kg oral) of the same compound?
**A.** increased up to the level of the normal group

**Q.** What about the “OX42 (reactive microglia) intensity normalized to the normal group” value ([3]; DG and CA1 regions, 5, 10, 20 mg/kg) of the same compound?
**A.** decreased in a dose-dependent manner; also recorded: decreased again to the level of the normal model
